{
  "source": "PubChem BioAssay AID1963834",
  "about": "(Molecular Pharmacology Branch, DTP, NCI, 2024)",
  "test_system": "873145-292-R-J1-PDC complex spheroid viability",
  "test": "Anticancer human tumor 873145-292-R-J1-PDC patient-derived renal clear cell carcinoma cell line growth inhibition [POLQ]",
  "conditions": "for IC50: curve of first compound; for viability, T/C: stronger effect = lower value",
  "outline": "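Growth inhibition in 3D: complex spheroids (tumor PDC, HUVEC, MSC) treated with POLQ inhibitor combinations; where Cmax unknown, highest tested concentration 10 microM, except SN-38 at 1 microM.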",
  "key": {"[1]": {"conditions": "second compound 0.0316 µM, first compound 0.0316 µM"}, "[2]": {"conditions": "second compound 0.0316 µM, first compound 0.1 µM"}, "[3]": {"conditions": "second compound 0.0316 µM, first compound 0.316 µM"}, "[4]": {"conditions": "second compound 0.0316 µM, first compound 1 µM"}, "[5]": {"conditions": "second compound 0.0316 µM, first compound 3.16 µM"}, "[6]": {"conditions": "second compound 0.0316 µM, first compound 10 µM"}, "[7]": {"conditions": "second compound 0.1 µM, first compound 0.0316 µM"}, "[8]": {"conditions": "second compound 0.1 µM, first compound 0.1 µM"}, "[9]": {"conditions": "second compound 0.1 µM, first compound 0.316 µM"}, "[10]": {"conditions": "second compound 0.1 µM, first compound 1 µM"}, "[11]": {"conditions": "second compound 0.1 µM, first compound 3.16 µM"}, "[12]": {"conditions": "second compound 0.1 µM, first compound 10 µM"}, "[13]": {"conditions": "second compound 0.316 µM, first compound 0.0316 µM"}, "[14]": {"conditions": "second compound 0.316 µM, first compound 0.1 µM"}, "[15]": {"conditions": "second compound 0.316 µM, first compound 0.316 µM"}, "[16]": {"conditions": "second compound 0.316 µM, first compound 1 µM"}, "[17]": {"conditions": "second compound 0.316 µM, first compound 3.16 µM"}, "[18]": {"conditions": "second compound 0.316 µM, first compound 10 µM"}, "[19]": {"conditions": "second compound 1 µM, first compound 0.0316 µM"}, "[20]": {"conditions": "second compound 1 µM, first compound 0.1 µM"}, "[21]": {"conditions": "second compound 1 µM, first compound 0.316 µM"}, "[22]": {"conditions": "second compound 1 µM, first compound 1 µM"}, "[23]": {"conditions": "second compound 1 µM, first compound 3.16 µM"}, "[24]": {"conditions": "second compound 1 µM, first compound 10 µM"}, "[25]": {"conditions": "second compound 3.16 µM, first compound 0.0316 µM"}, "[26]": {"conditions": "second compound 3.16 µM, first compound 0.1 µM"}, "[27]": {"conditions": "second compound 3.16 µM, first compound 0.316 µM"}, "[28]": {"conditions": "second compound 3.16 µM, first compound 1 µM"}, "[29]": {"conditions": "second compound 3.16 µM, first compound 3.16 µM"}, "[30]": {"conditions": "second compound 3.16 µM, first compound 10 µM"}, "[31]": {"conditions": "second compound 10 µM, first compound 0.0316 µM"}, "[32]": {"conditions": "second compound 10 µM, first compound 0.1 µM"}, "[33]": {"conditions": "second compound 10 µM, first compound 0.316 µM"}, "[34]": {"conditions": "second compound 10 µM, first compound 1 µM"}, "[35]": {"conditions": "second compound 10 µM, first compound 3.16 µM"}, "[36]": {"conditions": "second compound 10 µM, first compound 10 µM"}},
  "data": [
    {"molecule": "CC1COCCN1c1cc(-c2ccnn2C)c2ccnc(-c3ccn[nH]3)c2n1", "note": "(centres undefined) + Cc1cccc(N(C)C(=O)C2C(O)CCN2c2nc(C)cc(C(F)(F)F)c2C#N)c1;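 further: spheroids exposed to compounds for 7 days before viability readout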;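 on viability, T/C: luminescence signal used as surrogate for viable cell content; 100% = DMSO vehicle control viability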", "values": [
      {"measurement": "IC50", "setting": "second compound 0.0316 µM", "result": 1080, "unit": "nM"},
      {"measurement": "IC50", "setting": "second compound 0.1 µM", "result": 1600, "unit": "nM"},
      {"measurement": "IC50", "setting": "second compound 0.316 µM", "result": 1540, "unit": "nM"},
      {"measurement": "IC50", "setting": "second compound 1 µM", "result": 1530, "unit": "nM"},
      {"measurement": "IC50", "setting": "second compound 3.16 µM", "result": 987, "unit": "nM"},
      {"measurement": "IC50", "setting": "second compound 10 µM", "result": 895, "unit": "nM"},
      {"measurement": "viability, T/C", "setting": "[1]", "result": 90.6, "unit": "%"},
      {"measurement": "viability, T/C", "setting": "[2]", "result": 79.1, "unit": "%"},
      {"measurement": "viability, T/C", "setting": "[3]", "result": 68.1, "unit": "%"},
      {"measurement": "viability, T/C", "setting": "[4]", "result": 46.1, "unit": "%"},
      {"measurement": "viability, T/C", "setting": "[5]", "result": 48.6, "unit": "%"},
      {"measurement": "viability, T/C", "setting": "[6]", "result": 43.1, "unit": "%"},
      {"measurement": "viability, T/C", "setting": "[7]", "result": 99.3, "unit": "%"},
      {"measurement": "viability, T/C", "setting": "[8]", "result": 87.7, "unit": "%"},
      {"measurement": "viability, T/C", "setting": "[9]", "result": 74.3, "unit": "%"},
      {"measurement": "viability, T/C", "setting": "[10]", "result": 54.5, "unit": "%"},
      {"measurement": "viability, T/C", "setting": "[11]", "result": 39.9, "unit": "%"},
      {"measurement": "viability, T/C", "setting": "[12]", "result": 45.4, "unit": "%"},
      {"measurement": "viability, T/C", "setting": "[13]", "result": 95.1, "unit": "%"},
      {"measurement": "viability, T/C", "setting": "[14]", "result": 90.6, "unit": "%"},
      {"measurement": "viability, T/C", "setting": "[15]", "result": 69, "unit": "%"},
      {"measurement": "viability, T/C", "setting": "[16]", "result": 53.3, "unit": "%"},
      {"measurement": "viability, T/C", "setting": "[17]", "result": 47, "unit": "%"},
      {"measurement": "viability, T/C", "setting": "[18]", "result": 36.1, "unit": "%"},
      {"measurement": "viability, T/C", "setting": "[19]", "result": 92.3, "unit": "%"},
      {"measurement": "viability, T/C", "setting": "[20]", "result": 80.5, "unit": "%"},
      {"measurement": "viability, T/C", "setting": "[21]", "result": 67.7, "unit": "%"},
      {"measurement": "viability, T/C", "setting": "[22]", "result": 50.4, "unit": "%"},
      {"measurement": "viability, T/C", "setting": "[23]", "result": 46.6, "unit": "%"},
      {"measurement": "viability, T/C", "setting": "[24]", "result": 44.4, "unit": "%"},
      {"measurement": "viability, T/C", "setting": "[25]", "result": 101, "unit": "%"},
      {"measurement": "viability, T/C", "setting": "[26]", "result": 88, "unit": "%"},
      {"measurement": "viability, T/C", "setting": "[27]", "result": 71.4, "unit": "%"},
      {"measurement": "viability, T/C", "setting": "[28]", "result": 47, "unit": "%"},
      {"measurement": "viability, T/C", "setting": "[29]", "result": 44.1, "unit": "%"},
      {"measurement": "viability, T/C", "setting": "[30]", "result": 40.5, "unit": "%"},
      {"measurement": "viability, T/C", "setting": "[31]", "result": 91.6, "unit": "%"},
      {"measurement": "viability, T/C", "setting": "[32]", "result": 82.9, "unit": "%"},
      {"measurement": "viability, T/C", "setting": "[33]", "result": 69, "unit": "%"},
      {"measurement": "viability, T/C", "setting": "[34]", "result": 46.5, "unit": "%"},
      {"measurement": "viability, T/C", "setting": "[35]", "result": 42, "unit": "%"},
      {"measurement": "viability, T/C", "setting": "[36]", "result": 40.2, "unit": "%"}
    ]},
    {"molecule": "CC1COCCN1c1cc(C2(S(C)(=N)=O)CC2)nc(-c2ccnc3[nH]ccc23)n1", "note": "(centres undefined) + Cc1cccc(N(C)C(=O)C2C(O)CCN2c2nc(C)cc(C(F)(F)F)c2C#N)c1", "values": [
      {"measurement": "IC50", "setting": "second compound 0.0316 µM", "result": "> 10000", "unit": "nM"},
      {"measurement": "IC50", "setting": "second compound 0.1 µM", "result": "> 10000", "unit": "nM"},
      {"measurement": "IC50", "setting": "second compound 0.316 µM", "result": "> 10000", "unit": "nM"},
      {"measurement": "IC50", "setting": "second compound 1 µM", "result": "> 10000", "unit": "nM"},
      {"measurement": "IC50", "setting": "second compound 3.16 µM", "result": "> 10000", "unit": "nM"},
      {"measurement": "IC50", "setting": "second compound 10 µM", "result": "> 10000", "unit": "nM"},
      {"measurement": "viability, T/C", "setting": "[1]", "result": 98.1, "unit": "%"},
      {"measurement": "viability, T/C", "setting": "[2]", "result": 102, "unit": "%"},
      {"measurement": "viability, T/C", "setting": "[3]", "result": 101, "unit": "%"},
      {"measurement": "viability, T/C", "setting": "[4]", "result": 95.4, "unit": "%"},
      {"measurement": "viability, T/C", "setting": "[5]", "result": 83.6, "unit": "%"},
      {"measurement": "viability, T/C", "setting": "[6]", "result": 64.5, "unit": "%"},
      {"measurement": "viability, T/C", "setting": "[7]", "result": 104, "unit": "%"},
      {"measurement": "viability, T/C", "setting": "[8]", "result": 98.5, "unit": "%"},
      {"measurement": "viability, T/C", "setting": "[9]", "result": 90.1, "unit": "%"},
      {"measurement": "viability, T/C", "setting": "[10]", "result": 102, "unit": "%"},
      {"measurement": "viability, T/C", "setting": "[11]", "result": 75.1, "unit": "%"},
      {"measurement": "viability, T/C", "setting": "[12]", "result": 59.4, "unit": "%"},
      {"measurement": "viability, T/C", "setting": "[13]", "result": 115, "unit": "%"},
      {"measurement": "viability, T/C", "setting": "[14]", "result": 96.6, "unit": "%"},
      {"measurement": "viability, T/C", "setting": "[15]", "result": 98.8, "unit": "%"},
      {"measurement": "viability, T/C", "setting": "[16]", "result": 87.1, "unit": "%"},
      {"measurement": "viability, T/C", "setting": "[17]", "result": 92, "unit": "%"},
      {"measurement": "viability, T/C", "setting": "[18]", "result": 60.1, "unit": "%"},
      {"measurement": "viability, T/C", "setting": "[19]", "result": 101, "unit": "%"},
      {"measurement": "viability, T/C", "setting": "[20]", "result": 99.3, "unit": "%"},
      {"measurement": "viability, T/C", "setting": "[21]", "result": 93.5, "unit": "%"},
      {"measurement": "viability, T/C", "setting": "[22]", "result": 96, "unit": "%"},
      {"measurement": "viability, T/C", "setting": "[23]", "result": 75.3, "unit": "%"},
      {"measurement": "viability, T/C", "setting": "[24]", "result": 54.5, "unit": "%"},
      {"measurement": "viability, T/C", "setting": "[25]", "result": 99.4, "unit": "%"},
      {"measurement": "viability, T/C", "setting": "[26]", "result": 99.6, "unit": "%"},
      {"measurement": "viability, T/C", "setting": "[27]", "result": 99.6, "unit": "%"},
      {"measurement": "viability, T/C", "setting": "[28]", "result": 87.2, "unit": "%"},
      {"measurement": "viability, T/C", "setting": "[29]", "result": 77.4, "unit": "%"},
      {"measurement": "viability, T/C", "setting": "[30]", "result": 55.4, "unit": "%"},
      {"measurement": "viability, T/C", "setting": "[31]", "result": 90.8, "unit": "%"},
      {"measurement": "viability, T/C", "setting": "[32]", "result": 96.3, "unit": "%"},
      {"measurement": "viability, T/C", "setting": "[33]", "result": 98.4, "unit": "%"},
      {"measurement": "viability, T/C", "setting": "[34]", "result": 91.5, "unit": "%"},
      {"measurement": "viability, T/C", "setting": "[35]", "result": 64.9, "unit": "%"},
      {"measurement": "viability, T/C", "setting": "[36]", "result": 68.8, "unit": "%"}
    ]}
  ]
}
